Type in all cases: functional
Assay [1] has as its system Helicoverpa armigera. The experiment in a line: Insecticidal activity against fourth-instar larval stage of pyrethroid-susceptible Helicoverpa armigera laboratory strain BK-77 assessed as mortality applied topically onto thorax measured after 48 hr.
In assay [2] the test system is Helicoverpa armigera. The experiment in a line: Insecticidal activity against fourth-instar larval stage of Helicoverpa armigera field strain Mokong isolated from cotton plant assessed as mortality applied topically onto thorax measured after 48 hr.
Assay [3] deals with Helicoverpa armigera. The experiment in a line: Synergism factor, ratio of LD50 for Helicoverpa armigera field strain Guider to LD50 for fourth-instar larval stage of Helicoverpa armigera field strain Guider in presence of 10 microg/larva cytochrome P450 monooxygenase inhibitor, PBO.
Assay [4] has as its system Helicoverpa armigera. The experiment in a line: Insecticidal activity against fourth-instar larval stage of Helicoverpa armigera Foumbot isolated from tomato plant assessed as mortality applied topically onto thorax 30 min after 10 microg/larva cytochrome P450 monooxygenase inhibitor, PBO application measured after 48 hr.
Assay [5] relates to Helicoverpa armigera. The experiment in a line: Insecticidal activity against fourth-instar larval stage of Helicoverpa armigera Foumbot isolated from tomato plant assessed as mortality applied topically onto thorax measured after 48 hr.
Assay [6] relates to Helicoverpa armigera. The experiment in a line: Resistance factor, ratio of LD50 for fourth-instar larval stage of Helicoverpa armigera field strain Home to LD50 for fourth-instar larval stage of pyrethroid-susceptible Helicoverpa armigera laboratory strain BK-77.
Assay [7] relates to Helicoverpa armigera. The experiment in a line: Resistance factor, ratio of LD50 for fourth-instar larval stage of Helicoverpa armigera field strain Gaschiga isolated from hyptis plant to LD50 for fourth-instar larval stage of pyrethroid-susceptible Helicoverpa armigera laboratory strain BK-77.
The subject of assay [8] is Helicoverpa armigera. The experiment in a line: Synergism factor, ratio of LD50 for fourth-instar larval stage of Helicoverpa armigera field strain Pitoa isolated from maize plant to LD50 for fourth-instar larval stage of Helicoverpa armigera field strain Pitoa isolated from maize plant in presence of 10 microg/larva cytochrome P450 monooxygenase inhibitor, PBO.
Assay [9] deals with Helicoverpa armigera. The experiment in a line: Insecticidal activity against fourth-instar larval stage of Helicoverpa armigera field strain Gaschiga isolated from hyptis plant assessed as mortality applied topically onto thorax 30 min after 10 microg/larva cytochrome P450 monooxygenase inhibitor, PBO application measured after 48 hr.
In assay [10] the test system is Helicoverpa armigera. The experiment in a line: Synergism factor, ratio of LD50 for fourth-instar larval stage of pyrethroid-resistance Helicoverpa armigera laboratory strain GS-RR06 to LD50 for fourth-instar larval stage of pyrethroid-resistance Helicoverpa armigera laboratory strain GS-RR06 in presence of 10 microg/larva cytochrome P450 monooxygenase inhibitor, PBO.

Experimental findings from ChEMBL document CHEMBL3046004, “Esterase-mediated resistance to pyrethroids in field populations of Helicoverpa armigera (Lepidoptera: Noctuidae) from Central Africa” (2009) are described below.

With `CC1(C)C(C=C(Cl)Cl)C1C(=O)OC(C#N)c1cccc(Oc2ccccc2)c1` (stereo not drawn) [ALPHA-CYPERMETHRIN], the LD50 in the assay on Helicoverpa armigera [1] was found to be 0.5 microgAi/g; in the assay on Helicoverpa armigera [2], 71.5 microgAi/g; with Helicoverpa armigera [4] it was 63 microgAi/g; in the assay on Helicoverpa armigera [5] it was 81.6 microgAi/g; in the assay on Helicoverpa armigera [9], 1.8 microgAi/g. The Ratio was found to be 3.6 in the assay with Helicoverpa armigera [3]; 93 with Helicoverpa armigera [6]; 96 in the assay with Helicoverpa armigera [7]; 8.3 in the assay on Helicoverpa armigera [8]; 1.5 with Helicoverpa armigera [10].
